Assay results taken from patent publication EP0908457B1, “3-(1,2-benzisothiazol- and isoxazol-5-Y1)-2,4(1H,3H)-pyrimidinedione or thione and 3-(1,2-benzisothiazol- and isoxazol-5-y1)-4(3H)-pyrimidinone or thione herbicidal agents” (BASF AKTIENGESELLSCHAFT, priority 1997, dated 1999).

Key:
[1] = test system: Echinochloa oryzoides (Ard.) Fritsch.; assay: Preemergence weed control under flooded paddy conditions, ECHORC (Watergrass (Calif.)); assay type: in vivo; conditions: flooded paddy; for ECHORC: preemergence weeds, herbicidal effect rating 0-9, three to four weeks after treatment; for herbicidal effect rating, ECHORC: preemergence, rated three to four weeks after treatment
[2] = test system: Cyperus iria; assay: Preemergence weed control under flooded paddy conditions, CYPIR (Rice Flatsedge); assay type: in vivo; conditions: flooded paddy; for CYPIR: preemergence weeds, herbicidal effect rating 0-9, three to four weeks after treatment; for herbicidal effect rating, CYPIR: preemergence, rated three to four weeks after treatment
[3] = test system: Cyperus serotinus, Rottb.; assay: Preemergence weed control under flooded paddy conditions, CYPSE (Flatsedge); assay type: in vivo; conditions: for CYPSE: preemergence weeds, herbicidal effect rating 0-9, three to four weeks after treatment; for herbicidal effect rating, CYPSE: preemergence, rated three to four weeks after treatment
[4] = test system: Monochoria vaginalis, Presl.; assay: Preemergence weed control under flooded paddy conditions, MOOVA (Monochoria); assay type: in vivo; conditions: flooded paddy; for MOOVA: preemergence weeds, herbicidal effect rating 0-9, three to four weeks after treatment; for herbicidal effect rating, MOOVA: preemergence, rated three to four weeks after treatment
[5] = test system: Sagittaria pygmaea, L.; assay: Preemergence weed control under flooded paddy conditions, SAGPY (Arrowhead (Pygmaea)); assay type: in vivo; conditions: flooded paddy; for SAGPY: preemergence weeds, herbicidal effect rating 0-9, three to four weeks after treatment; for herbicidal effect rating, SAGPY: preemergence, rated three to four weeks after treatment
[6] = test system: Echinochloa oryzoides (Ard.) Fritsch.; assay: Postemergence weed control under flooded paddy conditions, ECHORC (Watergrass (Calif.)); assay type: in vivo; conditions: rated three to four weeks after treatment
[7] = test system: Cyperus iria; assay: Postemergence weed control under flooded paddy conditions, CYPIR (Rice Flatsedge); assay type: in vivo; conditions: rated three to four weeks after treatment
[8] = test system: Cyperus serotinus, Rottb.; assay: Postemergence weed control under flooded paddy conditions, CYPSE (Flatsedge); assay type: in vivo; conditions: rated three to four weeks after treatment
[9] = test system: Monochoria vaginalis, Presl.; assay: Postemergence weed control under flooded paddy conditions, MOOVA (Monochoria); assay type: in vivo; conditions: rated three to four weeks after treatment
[10] = test system: Sagittaria pygmaea, L.; assay: Postemergence weed control under flooded paddy conditions, SAGPY (Arrowhead (Pygmaea)); assay type: in vivo; conditions: rated three to four weeks after treatment
[11] = test system: Oryza sativa, (L.) Tebonnet; assay: Rice tolerance to post-transplant applications under flooded paddy conditions (Example 187), ORYSAT (Rice, Tebonnet); conditions: for ORYSAT: herbicidal effect rating 0-9, three to four weeks after treatment; for herbicidal effect rating ORYSAT: rated three to four weeks after treatment; as to herbicidal effect rating ORYSAT: meaning of each grade not given here
[12] = test system: Oryza sativa, (L.) Tebonnet; assay: Rice tolerance to post-transplant applications under flooded paddy conditions (Example 188), ORYSAT (Rice, Tebonnet); conditions: rated three to four weeks after treatment

Which results are given for `COc1ccc(I)cc1-c1nsc2ccc(-n3c(=O)cc(C(F)(F)F)n(C)c3=O)cc12` [Example 448, 2,4(1H,3H)-Pyrimidinedione, 3-[3-(5-iodo-2-methoxyphenyl)-1,2-benzisothiazol-5-yl]-1-methyl-6-(trifluoromethyl)-]?
ECHORC ([1]; 0.0320 kg/ha): 9.0; ECHORC ([1]; 0.0620 kg/ha): 9.0; ECHORC ([1]; 0.1250 kg/ha): 9.0; ECHORC ([1]; 0.2500 kg/ha): 9.0; CYPIR ([2]; 0.0320 kg/ha): 8.5; CYPIR ([2]; 0.0620 kg/ha): 9.0; CYPIR ([2]; 0.1250 kg/ha): 9.0; CYPIR ([2]; 0.2500 kg/ha): 9.0; CYPSE ([3]; 0.0320 kg/ha): 4.5; CYPSE ([3]; 0.0620 kg/ha): 4.5; CYPSE ([3]; 0.1250 kg/ha): 4.5; CYPSE ([3]; 0.2500 kg/ha): 6.5; MOOVA ([4]; 0.0320 kg/ha): 9.0; MOOVA ([4]; 0.0620 kg/ha): 9.0; MOOVA ([4]; 0.1250 kg/ha): 9.0; MOOVA ([4]; 0.2500 kg/ha): 9.0; SAGPY ([5]; 0.0320 kg/ha): 0.0; SAGPY ([5]; 0.0620 kg/ha): 1.5; SAGPY ([5]; 0.1250 kg/ha): 2.5; SAGPY ([5]; 0.2500 kg/ha): 3.5; herbicidal effect rating, ECHORC ([6]; Rate 0.0620 kg/ha): 0.0; herbicidal effect rating, ECHORC ([6]; Rate 0.1250 kg/ha): 1.0; herbicidal effect rating, ECHORC ([6]; Rate 0.2500 kg/ha): 2.0; herbicidal effect rating, CYPIR ([7]; Rate 0.1250 kg/ha): 7.0; herbicidal effect rating, CYPIR ([7]; Rate 0.2500 kg/ha): 9.0; herbicidal effect rating, CYPSE ([8]; Rate 0.0620 kg/ha): 0.0; herbicidal effect rating, CYPSE ([8]; Rate 0.1250 kg/ha): 0.0; herbicidal effect rating, CYPSE ([8]; Rate 0.2500 kg/ha): 0.0; herbicidal effect rating, MOOVA ([9]; Rate 0.0620 kg/ha): 0.0; herbicidal effect rating, MOOVA ([9]; Rate 0.1250 kg/ha): 1.0; herbicidal effect rating, MOOVA ([9]; Rate 0.2500 kg/ha): 4.0; herbicidal effect rating, SAGPY ([10]; Rate 0.0620 kg/ha): 0.0; herbicidal effect rating, SAGPY ([10]; Rate 0.1250 kg/ha): 0.0; herbicidal effect rating, SAGPY ([10]; Rate 0.2500 kg/ha): 0.0; ORYSAT ([11]; 0.0320 kg/ha): 3.5; ORYSAT ([11]; 0.0620 kg/ha): 4.0; ORYSAT ([11]; 0.1250 kg/ha): 4.0; ORYSAT ([11]; 0.2500 kg/ha): 4.0; herbicidal effect rating, ORYSAT (rice tolerance) ([12]; Rate 0.0620 kg/ha): 0.0; herbicidal effect rating, ORYSAT (rice tolerance) ([12]; Rate 0.1250 kg/ha): 1.0; herbicidal effect rating, ORYSAT (rice tolerance) ([12]; Rate 0.2500 kg/ha): 2.0

`COC(=O)COc1ccc(C)cc1-c1noc2cc(F)c(-n3c(=O)cc(C(F)(F)F)n(C)c3=O)cc12` [Example 359, Acetic acid, {{2-{5-[3,6-dihydro-3-methyl-2,6-dioxo-4-(trifluoromethyl)-1(2H)-pyrimidinyl]-6-fluoro-1,2-benzisoxazol-3-yl}-p-tolyl}oxy}-, methyl ester] was tested. Which “herbicidal effect rating, ECHORC” value ([1]; Rate 0.0320 kg/ha) did it give?
Its value is 8.5.

What about the “herbicidal effect rating, ECHORC” value ([1]; Rate 0.0620 kg/ha) of the same compound?
The value was 9.0.

And the “herbicidal effect rating, ECHORC” value ([1]; Rate 0.1250 kg/ha)?
Its value is 9.0.

What about the “herbicidal effect rating, ECHORC” value ([1]; Rate 0.2500 kg/ha) of the same compound?
The value was 9.0.

And the “herbicidal effect rating, ECHORC” value ([1]; Rate 0.5000 kg/ha)?
The value was 9.0.

And the “herbicidal effect rating, CYPIR” value ([2]; Rate 0.0320 kg/ha)?
Its value is 6.3.

And the “herbicidal effect rating, CYPIR” value ([2]; Rate 0.0620 kg/ha)?
Its value is 7.5.

What about the “herbicidal effect rating, CYPIR” value ([2]; Rate 0.1250 kg/ha) of the same compound?
Its value is 8.5.

And the “herbicidal effect rating, CYPIR” value ([2]; Rate 0.2500 kg/ha)?
Its value is 9.0.

And the “herbicidal effect rating, CYPIR” value ([2]; Rate 0.5000 kg/ha)?
Its value is 9.0.

And the “herbicidal effect rating, CYPSE” value ([3]; Rate 0.0320 kg/ha)?
Its value is 9.0.

And the “herbicidal effect rating, CYPSE” value ([3]; Rate 0.0620 kg/ha)?
Its value is 6.0.

And the “herbicidal effect rating, CYPSE” value ([3]; Rate 0.1250 kg/ha)?
Its value is 9.0.

What about the “herbicidal effect rating, CYPSE” value ([3]; Rate 0.2500 kg/ha) of the same compound?
Its value is 9.0.

What about the “herbicidal effect rating, MOOVA” value ([4]; Rate 0.0320 kg/ha) of the same compound?
Its value is 8.8.

And the “herbicidal effect rating, MOOVA” value ([4]; Rate 0.0620 kg/ha)?
The value was 9.0.

And the “herbicidal effect rating, MOOVA” value ([4]; Rate 0.1250 kg/ha)?
Its value is 9.0.

And the “herbicidal effect rating, MOOVA” value ([4]; Rate 0.2500 kg/ha)?
The value was 9.0.

And the “herbicidal effect rating, MOOVA” value ([4]; Rate 0.5000 kg/ha)?
Its value is 9.0.

And the “herbicidal effect rating, SAGPY” value ([5]; Rate 0.0320 kg/ha)?
The value was 0.0.

And the “herbicidal effect rating, SAGPY” value ([5]; Rate 0.0620 kg/ha)?
The value was 0.5.

And the “herbicidal effect rating, SAGPY” value ([5]; Rate 0.1250 kg/ha)?
Its value is 1.8.

And the “herbicidal effect rating, SAGPY” value ([5]; Rate 0.2500 kg/ha)?
The value was 4.5.

What about the “herbicidal effect rating, SAGPY” value ([5]; Rate 0.5000 kg/ha) of the same compound?
Its value is 5.0.

And the “herbicidal effect rating, ECHORC” value ([6]; Rate 0.0320 kg/ha)?
The value was 2.0.

What about the “herbicidal effect rating, ECHORC” value ([6]; Rate 0.0620 kg/ha) of the same compound?
The value was 6.0.

What about the “herbicidal effect rating, ECHORC” value ([6]; Rate 0.1250 kg/ha) of the same compound?
The value was 6.0.

What about the “herbicidal effect rating, CYPIR” value ([7]; Rate 0.0320 kg/ha) of the same compound?
Its value is 4.0.

What about the “herbicidal effect rating, CYPIR” value ([7]; Rate 0.0620 kg/ha) of the same compound?
Its value is 7.0.

What about the “herbicidal effect rating, CYPIR” value ([7]; Rate 0.1250 kg/ha) of the same compound?
Its value is 9.0.

And the “herbicidal effect rating, CYPSE” value ([8]; Rate 0.0320 kg/ha)?
Its value is 0.0.

And the “herbicidal effect rating, CYPSE” value ([8]; Rate 0.0620 kg/ha)?
The value was 0.0.

What about the “herbicidal effect rating, CYPSE” value ([8]; Rate 0.1250 kg/ha) of the same compound?
Its value is 0.0.

What about the “herbicidal effect rating, MOOVA” value ([9]; Rate 0.0320 kg/ha) of the same compound?
The value was 7.0.

And the “herbicidal effect rating, MOOVA” value ([9]; Rate 0.0620 kg/ha)?
Its value is 7.0.

What about the “herbicidal effect rating, MOOVA” value ([9]; Rate 0.1250 kg/ha) of the same compound?
Its value is 9.0.

And the “herbicidal effect rating, SAGPY” value ([10]; Rate 0.0320 kg/ha)?
Its value is 0.0.

What about the “herbicidal effect rating, SAGPY” value ([10]; Rate 0.0620 kg/ha) of the same compound?
The value was 0.0.

And the “herbicidal effect rating, SAGPY” value ([10]; Rate 0.1250 kg/ha)?
The value was 0.0.

And the “herbicidal effect rating ORYSAT” value ([11]; Rate 0.0320 kg/ha)?
The value was 6.5.

And the “herbicidal effect rating ORYSAT” value ([11]; Rate 0.0620 kg/ha)?
Its value is 7.3.

And the “herbicidal effect rating ORYSAT” value ([11]; Rate 0.1250 kg/ha)?
Its value is 8.8.

And the “herbicidal effect rating ORYSAT” value ([11]; Rate 0.2500 kg/ha)?
The value was 9.0.

What about the “herbicidal effect rating ORYSAT” value ([11]; Rate 0.5000 kg/ha) of the same compound?
Its value is 9.0.

What about the “herbicidal effect rating, ORYSAT (rice tolerance)” value (“herbicidal effect rating, ORYSAT” below) ([12]; Rate 0.0320 kg/ha) of the same compound?
Its value is 2.0.

What about the “herbicidal effect rating, ORYSAT” value ([12]; Rate 0.0620 kg/ha) of the same compound?
Its value is 3.0.

And the “herbicidal effect rating, ORYSAT” value ([12]; Rate 0.1250 kg/ha)?
The value was 4.0.
